“Also recorded” adds a separate entry of the source.
How the values were obtained:
[1] = system: abuse liability (lever pressing for intravenous drug delivery); test: Self-administration model; format: in vivo, rat
Source text: Self-Administration Model.
Addiction/dependence is a critical side effect of opioids and must be evaluated with any new member of this family. The most reliable test of abuse liability with the most translational relevance is a contingent drug self-administration model, in which rats are trained to press a lever for intravenous drug delivery. Sixteen standard self-administration chambers (30×20×20 cm, Med Associates) were housed inside sound-attenuating cubicles fitted with a fan for airflow and to mask noise. Each chamber contained two retractable levers, two stimulus lights, a speaker for tone delivery, and a house light to provide general illumination. In addition, each chamber was equipped with a balanced metal arm and spring leash attached to a swivel (Instech). Tygon® tubing extended through the leash and was connected to a 10 ml syringe mounted on an infusion pump located outside the sound-attenuating cubicle. Rats were anesthetized with i.p. injections of ketamine (66 mg/kg; Vedcolnc, St Joseph, Mo., USA), xylazine (1.3 mg/kg; Lloyd Laboratories, Shenandoah, Iowa, USA), and equithesin (0.5 ml/kg); sodium pentobarbital (4 mg/kg), chloral hydrate (17 mg/kg), and 21.3 mg/kg magnesium sulfate heptahydrate dissolved in 44% propylene glycol, 10% ethanol solution). Ketorolac (2.0 mg/kg, i.p. Sigma, St. Louis, Mo., USA) was given just prior to surgery as an analgesic. One end of a silastic catheter was inserted 33 mm into the external right jugular and secured with 4.0 silk sutures. The other end ran subcutaneously and exited from a small incision just below the scapula. This end is attached to an infusion harness (Instech Solomon, Plymouth Meeting, Pa., USA) that provides access to an external port for IV drug delivery. […]
During self-administration, rats received an IV infusion (0.1 ml) of 10 U/ml heparinized saline before each session. […] Cocaine was chosen for comparison purposes because it is readily self-administered.

[2] = Maximum tolerated dose determination; format: in vivo, rat; conditions: p.o., six rats per dose level, observed 4 days
Description: Maximum Tolerated Dose Determination.
In order to determine the maximum dose of JT09 that can be tolerated, its dose level was increased until the maximum tolerated dose (MTD) was identified or, if MTD dose was not reached, the maximum-administered dose (MAD). […] Six rats were included at each dose level (50, 70, and 90 mg/kg, p.o.). The animals were observed twice daily; body weights and detailed clinical observations for behavioral toxicity (porphyrin staining, changes in activity levels, changes in grooming habits, convulsions, catalepsy, muscular rigidity, and excessive vocalization) were made daily for 4 days after dosing at each level. Doses were chosen based on the compound's ED50 for analgesic potency.

[3] = system: sedation (distance traveled); test: Locomotor open field test
Description: Locomotor Open Field Test.
Sedation and a loss of muscle coordination are common CNS-mediated side effects of opioids. To assess the sedative effects of JT09, rats were given JT09 (20 mg/kg, p.o.) or morphine (10 mg/kg, i.p.) 20 min before placement in an automated (68 l×21 w×21 h cm) activity chambers for a 30 min test. Morphine was used as a comparison group due to its well-known sedative effects.

[4] = system: rewarding properties (compartment preference); test: Conditioned place preference; format: in vivo, rat; conditions: 20 mg/kg p.o., alternate treatment over eight days; listed as JT09
Description: Conditioned Place Preference.
To test whether JT09 was able to condition appetitive behaviors, we used a conditioned place procedure. On day one, rats were habituated to a three-compartment apparatus for 10 min. One compartment was black with a grid floor and the other white with a rod floor. A smaller center compartment was gray with a solid floor. The amount of time spent in each compartment was recorded. The side in which the rats spent the least amount of time on habituation day was paired with JT09, in that rats receive the compound via oral gavage immediately before compartment placement. On alternating days, rats were treated with saline and confined in the opposite compartment. Rats were confined to each compartment for 25 minutes. Test rats were orally gavaged with saline and given access to the entire apparatus for 10 minutes. The amount of time spent in each compartment was recorded.

[5] = system: dysphoria (time spent immobile); test: Forced swim assay; format: in vivo, rat
Description: The most common reason for discontinuing development of kappa agonists is the induction of dysphoria, which is mediated through CNS kappa receptors. To test for this side effect, we used an established model: the repeated forced swim assay. Rats were placed in a container with 30° C. water without an escape avenue. Time spent immobile during the last 4 min of each trial was recorded. Immobility was defined by a posture in which the forelimbs were motionless in front of the body, hind legs display limited motion, and the tail is directed outward. On day one, rats were placed in the water for 15 min. On the following day, placements consisted of four trials lasting 6 min each, separated by 10 mins. Salvorin A (1 mg/kg, i.p.) or JT09 (20 mg/kg, p.o.) were administered immediately before the first placement. Time spent immobile is a diagnostic of dysphoria and typically increases with each trial. Salvinorin A (a centrally available kappa agonist) was used as a positive control due to its known […] effects such as dysphoria.

[6] = Multiple dose study (14 days); format: in vivo, rat; conditions: 30 mg/kg oral daily for 14 days
Source text: Tolerance to the analgesic effects of the lead compounds was be assessed using the acetic acid-induced writhing assay (described above). Daily clinical observations for behavioral toxicity (described above) were made during the course of the experiment and body weight and food consumption recorded on study days 3, 5, 7, 9, 11 and 13. On day 15, animals were sacrificed in their home cages by carbon dioxide inhalation from a compressed gas tank. A gross necroscopic analysis was immediately performed following euthanasia.

SMILES: CCCC[C@@H](NC(=O)[C@@H](Cc1ccccc1)NC(=O)[C@H](N)Cc1ccccc1)C(=O)N[C@H](CCCCN(C)C)C(=O)NCc1ccncc1 [Compound 9]
- lever responding in operant self-administration ([1]; IV infusion 20 mg/kg/inf, 2-hr sessions, five-day period, n=8): failed to maintain lever responding
- number of infusions in self-administration ([1]; JT09 IV, days 2-5 compared to day one): decreased on all 4 days
- maximum administered dose (MAD) without mortality, loss of more than 10% body weight or overt signs of toxicity [2]: 90 mg/kg
- locomotor activity (distance traveled) versus saline ([3]; 20 mg/kg p.o., 30 min test): statistically indistinguishable
- locomotor activity relative to morphine ([3]; JT09 20 mg/kg p.o. versus morphine 10 mg/kg i.p., time bins 1, 2 and 5): higher locomotor activity
- sedation in locomotor test ([3]; JT09 20 mg/kg p.o., morphine 10 mg/kg i.p.): showed no sedation
- conditioned place preference for drug-paired compartment over saline [4]: did not develop a preference; also recorded: had no effect on compartment placement
- immobility time in forced swim versus saline ([5]; 20 mg/kg p.o., listed as JT09): statistically indistinguishable; also recorded: did not induce more than a baseline time of immobility
- immobility time in forced swim relative to salvinorin A ([5]; JT09 20 mg/kg p.o. versus salvinorin A 1 mg/kg i.p., all trials): lower amounts of time spent immobile
- tolerance (negative CNS-mediated effects associated with morphine) [6]: does not promote
- gross necropsy: heart, stomach, intestines, liver, spleen, pancreas, kidneys, adrenal glands, skeletal muscle, bone, reproductive organs, brain ([6]; six rats): grossly normal
- gross necropsy: lungs ([6]; attributed to CO2 euthanasia hemorrhage): slight grey discoloration
